Legend:
[1] = tested on: ASD Phenotype 1 lymphoblastoid cell lines (LCLs); assay: Energy production capacity (NADH, tetrazolium colorimetric assay, Biolog Phenotype Mammalian MicroArrays); assay type: cell-based, human
Method: (§1) The data reported in the present patent were generated from lymphoblastoid cell lines (LCLs) generated from lymphocytes from peripheral blood. Tubes containing anticoagulant citrate dextrose (ACD) were used to collect blood samples via venipuncture, in order to ensure that the blood cells remained metabolically active. The tubes were kept at room temperature and processed within 24 hours.
(§2) Cell lines were obtained by immortalization of lymphocytes from blood samples using Epstein-Barr virus. The lymphoblastoid cell lines were harvested in Sigma RPMI-1640 with 75 mL fetal bovine serum from Atlanta Biological (Lawrenceville, GA, USA) and 5 mL L-Glutamine and 5 mL antibiotic/antimycotic from Sigma-Aldrich (St. Louis, MO, USA).
(§3) Energy production of cells was measured using commercially available Phenotype Mammalian MicroArrays (PM-Ms, Biolog, Hayward, CA, USA).
(§4) The compound in each well was designed to be used by the cells, either as the sole energy source or as the metabolic effector influencing the utilization of an energy source (D-glucose) added in the cell suspension. The production of NADH per well was monitored using a colorimetric redox dye chemistry (Bochner et al. Assay of the multiple energy-producing pathways of mammalian cells. PLoS One 2011, 6(3):e18147). Before plating, cell viability and number were assessed utilizing a BioRad cell counter and a trypan blue dye.
(§5) The concentration of live cells required for plating was 4×10^5 cells/mL, corresponding to 20,000 cells per well in a volume of 50 μL. Only cell lines with viability of 55% or above were utilized for the experiments and, in order to minimize artifacts and biases due to prolonged cell culturing of transformed cells, LCLs were not been utilized if they had reached 15 passages. Cells were incubated for 48 h at 37° C. in 5% CO2, using the modified Biolog IF-M1 medium.
(§6) The Biolog IF-M1 medium was modified for plates PM-M1 by adding the following to 100 mL of Biolog IF-M1: 1.1 mL of 100× penicillin/streptomycin solution, 0.16 mL of 200 mM glutamine (final concentration 0.3 mM), and 5.3 mL of Fetal Bovine Serum (FBS, final concentration 5%). For plates PM-M6, 5.5 mM α-D-glucose was added instead of FBS.
(§7) After this first incubation, Biolog Redox Dye Mix MB was added (10 μL/well) and the plates were incubated under the same conditions for an additional 24 hours. As the cells metabolized the energy source, tetrazolium dye in the media was reduced, producing a purple color according to the amount of NADH generated.
(§8) For the last 24 hours of the experiment, plates were incubated in the Omnilog system, which collects optical density readings every 15 minutes, generating 96 data-points for each well. The system also elaborated the kinetic curve for the metabolic reaction in each well and extrapolated parameters such as slope, highest point, endpoint, area under the curve (AUC), and lag. The system performed parametric analysis by comparing kinetic curves of cases versus controls, both as individual sample or as cohorts.
(§9) At the end of the 24-hour incubation, plates were analyzed utilizing a microplate reader with readings at 590 and 750 nm. The first value (A590) indicated the highest absorbance peak of the redox dye and the second value (A750) gave a measure of the background noise. The relative absorbance (A590-750) was calculated per well.
(§10) Metabolic profiles of the same cell lines were then assessed after stimulation of the Nrf2 signaling pathway aiming to reproduce in control and Non-Ph1 cells the activation of the hub that occurs constitutively in ASD Ph1. In order to achieve the stimulation of the Nrf2 pathway, the cells were exposed to sulforaphane.

[2] = tested on: ASD non-Phenotype 1 lymphoblastoid cell lines (LCLs); assay: as above; assay type: cell-based, human; details: for energy production capacity: ASD non-Phenotype 1 LCLs, in presence of D-Glucose
Method: as §1, §2, §3, §4, §5, §6, §7, §8, §9, §10

[3] = tested on: control lymphoblastoid cell lines (LCLs); assay: as above; assay type: cell-based, human; details: for energy production capacity: in presence of D-Glucose
Method: as §1, §2, §3, §4, §5, §6, §7, §8, §9, §10

core symptoms of ASD = details: ASD patients treated in Singh et al.; cited from earlier work
ASD Phenotype 1 patients = details: short oral treatment, described in EP 17200185.1; cited from earlier work
[4] = Singh K et al., PNAS 2014; cited from earlier work

SMILES | energy production capacity ([1]; Phenotype 1 cells, in the presence of D-Glucose, increasing concentrations) | energy production capacity after pretreatment with sulforaphane (Nrf2 activation) ([2]; ASD non-Ph1 LCLs, in presence of glucose) | energy production capacity [2] | energy production capacity ([3]; control LCLs) | energy production capacity after pretreatment with sulforaphane (Nrf2 activation) ([3]; control LCLs, in presence of glucose, addition of dibutyryl cAMP) | effect on the dibutyryl cAMP-induced increase of energy production capacity ([1]; ASD Ph1 cells, D-Glucose, treated with sulforaphane) | effect on energy production capacity ([1]; ASD Phenotype 1 cell lines, various carbon sources of energy (FIG. 1, FIG. 2: D-Glucose, maltose), exposed to sulforaphane) | metabolic profile (PCA of energy production capacity) ([2]; ASD non-Phenotype 1 cells exposed to sulforaphane, various carbon sources of energy) | metabolic profile (PCA of energy production capacity) ([3]; control cells exposed to sulforaphane, various carbon sources of energy) | core symptoms of ASD (as measured by the ADOS 2) (core symptoms of ASD) | behavioral response (ADI-r SI, ADI-r C or ADI-r RI) (ASD Phenotype 1 patients) | tolerability of administration to humans [4] | toxicity [4]
CCCC(=O)Nc1ncnc2c1ncn2[C@@H]1O[C@@H]2COP(=O)(O)O[C@H]2[C@H]1OC(=O)CCC [dibutyryl cAMP, dibutyril-cyclic adenosine monophosphate] | increased | restituted | no effect | no effect | restituted | – | – | – | – | – | – | – | –
C[S@@+]([O-])CCCCN=C=S [sulforaphane, 1-isothiocyanato-4R-(methylsulfinyl)butane] | – | – | produced a decrease | produced a decrease | – | did not modify the response to dibutyryl cAMP | lack of effect | comparable to Ph1 cells at baseline | comparable to Ph1 cells at baseline | significant improvements | negative behavioral response | well tolerated | low toxicity

From US12474327B2, “Metabolic profiling for the diagnosis of a subset of idiopathic autism spectrum disorder patients, ADS Phenotype 1” (STALICLA SA, priority 2018, dated 2025)
